Activity calls are given as the source filed them.
Assays:
[1] = target: Cytochrome P450 2C9 (Homo sapiens, UniProt P11712)
[2] = target: T1, Cytochrome P450 1A2 (Homo sapiens, UniProt P05177);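 note: PubChem cytochrome P450 panel assay, CYP1A2 panel member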
T1 sequence (P05177 whole entry): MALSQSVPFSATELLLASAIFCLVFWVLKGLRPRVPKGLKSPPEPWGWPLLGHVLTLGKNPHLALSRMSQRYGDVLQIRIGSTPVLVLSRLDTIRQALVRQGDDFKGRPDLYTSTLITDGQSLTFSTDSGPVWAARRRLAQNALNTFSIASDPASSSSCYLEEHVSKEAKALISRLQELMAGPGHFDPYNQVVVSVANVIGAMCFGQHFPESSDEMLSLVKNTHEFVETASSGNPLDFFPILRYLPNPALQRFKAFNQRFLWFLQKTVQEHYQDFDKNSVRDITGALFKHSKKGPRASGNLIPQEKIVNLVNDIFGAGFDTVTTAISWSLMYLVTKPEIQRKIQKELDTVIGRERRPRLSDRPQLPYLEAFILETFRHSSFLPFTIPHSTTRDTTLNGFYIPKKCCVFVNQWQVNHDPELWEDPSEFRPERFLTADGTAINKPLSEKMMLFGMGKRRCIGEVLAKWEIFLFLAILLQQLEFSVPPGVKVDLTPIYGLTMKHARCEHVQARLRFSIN

[3] = target: T2, Short transient receptor potential channel 4 (Mus musculus, UniProt Q9QUQ5); test: calcium entry via TRPC4 opening agents – cell-based, HEK293 TRPC4/mu-opioid, Fluo-4 calcium, dose response (AID 434937); type: functional
T2 sequence (Q9QUQ5 whole entry): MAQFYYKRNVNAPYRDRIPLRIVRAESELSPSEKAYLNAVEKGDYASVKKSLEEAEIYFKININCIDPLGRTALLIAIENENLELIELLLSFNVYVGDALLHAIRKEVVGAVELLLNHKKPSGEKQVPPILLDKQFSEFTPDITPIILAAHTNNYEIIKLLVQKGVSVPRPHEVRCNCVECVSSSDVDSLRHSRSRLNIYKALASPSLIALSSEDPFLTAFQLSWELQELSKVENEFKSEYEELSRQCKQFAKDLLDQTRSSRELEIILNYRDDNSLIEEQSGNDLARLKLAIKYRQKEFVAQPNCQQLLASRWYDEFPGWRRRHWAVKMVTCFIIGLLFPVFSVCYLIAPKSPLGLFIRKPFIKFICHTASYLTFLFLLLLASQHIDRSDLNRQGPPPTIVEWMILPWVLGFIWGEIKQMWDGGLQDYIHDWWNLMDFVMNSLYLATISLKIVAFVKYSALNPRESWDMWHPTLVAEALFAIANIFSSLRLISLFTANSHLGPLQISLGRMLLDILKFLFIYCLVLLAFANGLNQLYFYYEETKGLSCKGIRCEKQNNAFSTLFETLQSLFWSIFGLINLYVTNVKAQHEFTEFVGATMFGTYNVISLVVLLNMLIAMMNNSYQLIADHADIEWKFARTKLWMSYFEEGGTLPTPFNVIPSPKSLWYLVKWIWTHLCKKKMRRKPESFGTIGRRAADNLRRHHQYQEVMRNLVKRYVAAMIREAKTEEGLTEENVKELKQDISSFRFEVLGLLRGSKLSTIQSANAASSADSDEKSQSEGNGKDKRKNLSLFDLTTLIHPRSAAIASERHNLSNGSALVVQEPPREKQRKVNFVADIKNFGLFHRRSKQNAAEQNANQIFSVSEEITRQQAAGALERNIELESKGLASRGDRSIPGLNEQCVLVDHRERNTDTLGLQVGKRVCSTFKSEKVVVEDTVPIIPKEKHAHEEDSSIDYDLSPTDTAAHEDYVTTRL

[4] = alpha-synuclein stem-loop luciferase translation blockers – H4 neuroglioma cells, luminescence, confirmation (AID 1988); type: functional, cell-based
[5] = target: T3, Microphthalmia-associated transcription factor (Homo sapiens, UniProt O75030); test: reducers of TRPM1 reporter luminescence, concentration series – cell-based, SK-MEL-5, cherry-picked, set 3, MITF inhibitor project, dose response (AID 493073); type: functional;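 note: SK-MEL-5 melanoma cells with luciferase driven by the MITF target TRPM1 promoter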
T3 sequence (O75030 whole entry): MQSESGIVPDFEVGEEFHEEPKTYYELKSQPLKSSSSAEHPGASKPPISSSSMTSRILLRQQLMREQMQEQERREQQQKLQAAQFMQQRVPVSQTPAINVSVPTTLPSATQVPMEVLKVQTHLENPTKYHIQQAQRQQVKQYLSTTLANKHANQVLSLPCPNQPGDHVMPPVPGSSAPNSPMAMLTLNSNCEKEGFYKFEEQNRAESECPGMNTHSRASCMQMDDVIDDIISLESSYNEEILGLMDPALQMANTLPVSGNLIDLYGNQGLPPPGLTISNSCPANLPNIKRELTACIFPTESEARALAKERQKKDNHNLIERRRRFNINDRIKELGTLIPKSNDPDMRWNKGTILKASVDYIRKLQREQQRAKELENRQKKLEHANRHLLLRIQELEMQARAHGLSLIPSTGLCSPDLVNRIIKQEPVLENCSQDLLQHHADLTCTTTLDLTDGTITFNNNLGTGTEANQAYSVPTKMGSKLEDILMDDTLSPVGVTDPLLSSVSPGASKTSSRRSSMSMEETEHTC

[6] = luciferase reporter signal suppression in cells – H4 neuroglioma cells, luminescence, dose response (AID 1990); type: functional, cell-based
[7] = Luminescence Cell-Based Dose Response HTS to Identify Inhibitors of 5'UTR Stem-Loop Driven Prion Protein mRNA Translation in H4 Neuroglioblastoma Cells. [Related pubchem assays: 1827 (Project Summary), 1813 (Primary HTS)]; type: functional
[8] = target: Cytochrome P450 3A4 (Homo sapiens, UniProt P08684);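 note: CYP3A4 tested as one member of a cytochrome P450 panel screen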
[9] = fluconazole-exposed Candida albicans growth modulators – fluorescence, retest, confirmation (AID 2467); type: functional, cell-based
[10] = viability of HCT116 lacking mutant beta-catenin – cell-based, human colon tumor, dose response (AID 1045); type: functional;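 note: HCT116 colon tumor cells with beta catenin knocked out; cells exposed to compound for 60 hours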
[11] = NIH-3T3 fibroblast cytotoxicity, dose response, cytotoxicity control, cell-based, fluorescence, Alamar Blue, secondary assay (AID 2327); type: functional;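 note: NIH-3T3 mouse fibroblasts cultured with fluconazole at 8 µg/mL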
[12] = viability of PTEN-deleted HCT116 cells – cell-based, HCT116 PTEN knockout, dose response (AID 1047); type: functional;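 note: HCT116 colon tumor cells with PTEN knocked out; cells exposed to compound for 60 hours before readout; potency for loss of cell viability measured by luminescence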
[13] = test system: INS1; test: INS-1E survival protection against cytokine death – cell-based, luminescence, retest, dose response (AID 449756); type: functional; conditions: Rattus norvegicus;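 note: cell death triggered by IL-1 beta plus TNF-alpha plus IFN-gamma mixture; protective hits raise ATP signal compared with cytokine alone wells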
[14] = target: T4, Protein RecA (Mycobacterium tuberculosis, UniProt P9WHJ3); test: Fluorescence Cell-Free Homogeneous Dose Retest to Identify Inhibitors of RecA-Intein Splicing Activity. [Related pubchem assays (depositor defined):AID2097, AID2223, AID489010, AID492950]; type: functional
T4 sequence (P9WHJ3 whole entry): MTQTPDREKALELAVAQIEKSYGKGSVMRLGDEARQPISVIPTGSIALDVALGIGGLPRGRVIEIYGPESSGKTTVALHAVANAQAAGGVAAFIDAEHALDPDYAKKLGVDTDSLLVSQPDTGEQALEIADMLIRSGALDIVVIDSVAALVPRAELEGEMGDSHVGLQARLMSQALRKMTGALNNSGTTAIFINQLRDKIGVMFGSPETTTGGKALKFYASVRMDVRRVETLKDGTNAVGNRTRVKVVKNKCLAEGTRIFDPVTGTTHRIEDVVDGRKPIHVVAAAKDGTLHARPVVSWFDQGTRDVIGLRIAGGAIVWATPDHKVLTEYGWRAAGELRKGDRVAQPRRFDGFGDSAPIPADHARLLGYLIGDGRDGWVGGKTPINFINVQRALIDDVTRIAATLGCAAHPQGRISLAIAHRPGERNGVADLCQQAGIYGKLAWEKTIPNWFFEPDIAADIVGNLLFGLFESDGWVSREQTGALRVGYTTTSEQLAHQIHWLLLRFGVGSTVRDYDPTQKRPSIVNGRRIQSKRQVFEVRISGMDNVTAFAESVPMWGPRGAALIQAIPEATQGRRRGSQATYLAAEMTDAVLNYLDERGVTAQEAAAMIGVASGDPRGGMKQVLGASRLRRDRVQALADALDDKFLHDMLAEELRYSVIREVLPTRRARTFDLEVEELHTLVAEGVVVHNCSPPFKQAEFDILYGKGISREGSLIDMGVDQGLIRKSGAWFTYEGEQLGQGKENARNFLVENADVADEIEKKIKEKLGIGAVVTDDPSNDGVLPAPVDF

[15] = target: Cytochrome P450 2D6 (Homo sapiens, UniProt P10635);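 note: CYP2D6 member of a cytochrome P450 panel assay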
[16] = target: T5, Replicative DNA helicase DnaB (Mycobacterium tuberculosis, UniProt P9WMR3); test: DnaB intein splicing inhibitors, dose response, biochemical, cell-free fluorescence (AID 449749); type: functional
T5 sequence (P9WMR3 whole entry): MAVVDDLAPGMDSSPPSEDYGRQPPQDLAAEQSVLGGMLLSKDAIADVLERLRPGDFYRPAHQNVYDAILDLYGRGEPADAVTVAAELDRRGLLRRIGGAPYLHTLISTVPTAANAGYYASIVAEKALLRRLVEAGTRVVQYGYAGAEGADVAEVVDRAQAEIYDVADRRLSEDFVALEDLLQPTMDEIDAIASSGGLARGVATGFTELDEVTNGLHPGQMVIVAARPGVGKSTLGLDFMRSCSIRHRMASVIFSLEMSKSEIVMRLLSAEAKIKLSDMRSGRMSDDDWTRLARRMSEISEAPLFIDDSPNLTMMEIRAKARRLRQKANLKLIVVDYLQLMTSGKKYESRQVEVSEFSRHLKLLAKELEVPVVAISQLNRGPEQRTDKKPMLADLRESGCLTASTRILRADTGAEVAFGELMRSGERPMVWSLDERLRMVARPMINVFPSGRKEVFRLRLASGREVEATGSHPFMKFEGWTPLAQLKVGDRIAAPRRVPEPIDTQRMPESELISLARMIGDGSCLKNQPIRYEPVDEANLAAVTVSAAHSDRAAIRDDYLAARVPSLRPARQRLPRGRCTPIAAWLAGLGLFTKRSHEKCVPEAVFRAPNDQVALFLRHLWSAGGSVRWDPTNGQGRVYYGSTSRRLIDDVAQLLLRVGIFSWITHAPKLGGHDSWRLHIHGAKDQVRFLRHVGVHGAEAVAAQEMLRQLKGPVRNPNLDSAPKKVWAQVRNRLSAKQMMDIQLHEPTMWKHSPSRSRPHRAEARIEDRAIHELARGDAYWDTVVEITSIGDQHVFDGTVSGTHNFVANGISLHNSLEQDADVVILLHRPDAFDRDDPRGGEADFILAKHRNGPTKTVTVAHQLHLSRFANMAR

Sequence of Cytochrome P450 2C9 (P11712 whole entry): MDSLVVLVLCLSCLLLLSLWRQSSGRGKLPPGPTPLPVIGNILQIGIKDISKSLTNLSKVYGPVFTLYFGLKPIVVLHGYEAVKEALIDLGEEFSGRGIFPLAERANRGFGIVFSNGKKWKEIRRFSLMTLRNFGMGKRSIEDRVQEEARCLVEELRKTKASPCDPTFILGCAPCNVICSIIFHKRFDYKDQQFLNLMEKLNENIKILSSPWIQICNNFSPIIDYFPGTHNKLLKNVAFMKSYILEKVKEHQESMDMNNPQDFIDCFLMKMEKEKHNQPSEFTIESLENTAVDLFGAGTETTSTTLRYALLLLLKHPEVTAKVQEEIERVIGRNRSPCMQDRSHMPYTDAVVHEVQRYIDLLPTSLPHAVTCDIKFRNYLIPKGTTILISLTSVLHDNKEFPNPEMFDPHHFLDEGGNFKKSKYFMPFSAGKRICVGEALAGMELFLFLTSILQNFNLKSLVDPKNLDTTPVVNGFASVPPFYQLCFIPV
Sequence of Cytochrome P450 3A4 (P08684 whole entry): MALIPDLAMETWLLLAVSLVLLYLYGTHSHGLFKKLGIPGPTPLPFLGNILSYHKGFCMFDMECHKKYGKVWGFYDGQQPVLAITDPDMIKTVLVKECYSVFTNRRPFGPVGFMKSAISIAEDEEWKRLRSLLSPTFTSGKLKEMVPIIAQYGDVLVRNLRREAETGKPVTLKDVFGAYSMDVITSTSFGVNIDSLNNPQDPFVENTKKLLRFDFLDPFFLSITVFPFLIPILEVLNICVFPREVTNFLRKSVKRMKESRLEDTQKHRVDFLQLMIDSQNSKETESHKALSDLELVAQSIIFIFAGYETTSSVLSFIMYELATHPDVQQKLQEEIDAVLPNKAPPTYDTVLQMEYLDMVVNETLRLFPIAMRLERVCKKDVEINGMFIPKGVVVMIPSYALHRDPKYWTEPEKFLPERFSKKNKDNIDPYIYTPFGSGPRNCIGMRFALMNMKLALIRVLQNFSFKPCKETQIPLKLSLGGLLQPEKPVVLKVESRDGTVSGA
Sequence of Cytochrome P450 2D6 (P10635 whole entry): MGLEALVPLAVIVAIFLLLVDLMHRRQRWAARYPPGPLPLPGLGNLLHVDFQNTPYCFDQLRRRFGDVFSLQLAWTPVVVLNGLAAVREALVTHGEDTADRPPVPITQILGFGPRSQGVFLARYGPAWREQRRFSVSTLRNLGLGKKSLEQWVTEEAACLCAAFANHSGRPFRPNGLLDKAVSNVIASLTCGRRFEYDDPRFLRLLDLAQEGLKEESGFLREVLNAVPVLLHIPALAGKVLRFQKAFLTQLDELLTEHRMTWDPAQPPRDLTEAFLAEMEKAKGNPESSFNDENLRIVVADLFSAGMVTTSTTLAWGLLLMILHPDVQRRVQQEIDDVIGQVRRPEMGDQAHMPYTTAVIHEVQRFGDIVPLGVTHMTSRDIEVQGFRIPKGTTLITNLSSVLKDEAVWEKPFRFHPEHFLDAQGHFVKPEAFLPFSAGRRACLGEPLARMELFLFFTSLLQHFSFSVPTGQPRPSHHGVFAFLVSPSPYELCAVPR

In the case of `COc1ccccc1CN1CC[C@@]2(CCCN(C(=O)c3c(C)noc3C)C2)C1`, the AC50 [1] was “inconclusive”.

With `Cc1csc(NC(=O)CCNS(=O)(=O)c2ccc3c(c2)c(=O)n(C)c(=O)n3C)n1` the AC50 [2] was 0.00631 µM (inconclusive) and the AC50 [1] was “inconclusive”.

In the case of `Cc1ccc(NC(=O)NCC(c2ccccc2)N(C)C)cc1` (stereo not given), the EC50 [3] was 0.004 µM (active).

For `C=CCSc1nc(C)cc(/C=C\c2ccccc2)c1C#N`, the AC50 [1] was “inconclusive”.

For `O=C(Nc1ccc(S(=O)(=O)N2CCCCCC2)cc1)c1n[nH]cc1[N+](=O)[O-]`, the EC50 [4] was 8.3 µM (active), the AC50 [5] was 4.02 µM (active) and the EC50 [6] was 6.09 µM (active). For the same compound, the EC50 [7] was 53.1 µM (active).

With `COc1cc(/C=C/C(=O)N2CCN(CC(O)COc3ccccc3)CC2)cc(OC)c1OC.Cl` (stereo not given) the AC50 [8] was 10 µM (inconclusive) and the AC50 [1] was “inconclusive”.

In the case of `O=C(NCCc1ccccn1)c1ccc(COc2ccccc2)o1`, the EC50 [3] was 4.73 µM (active).

With `O=C(Nc1cccc(F)c1)N1CC2(CCN(C(=O)c3cc(C(F)(F)F)cc(C(F)(F)F)c3)CC2)C1` the AC50 [8] was 39.8 µM (inconclusive) and the AC50 [1] was “inconclusive”.

In the case of `COc1cccc(C(=O)Oc2c(CN3CCOCC3)cc(Cl)c3cccnc23)c1`, the EC50 [9] was 1.83 µM (active), the EC50 [10] was 2.48 µM (active) and the EC50 [11] was > 75 µM (inactive). For the same compound, the EC50 [12] was 3.38 µM (active), the AC50 [13] was 4.85 µM (active) and the AC50 [5] was 9.9 µM (active).

With `CCC(CC)C(=O)NCc1ccc2c(c1)cc(C)n2C` the AC50 [1] was “inconclusive”, the EC50 [14] was > 380 µM (inactive) and the AC50 [15] was 31.6 µM (inconclusive). For the same compound, the AC50 [16] was > 380 µM (inactive).

With `C=CCn1c(CCNC(=O)C(C)(C)C)nc2ccccc21` the EC50 [3] was 3.76 µM (active).

Source: ChEMBL document CHEMBL1201862, “PubChem BioAssay data set” (2004)
